Results taken from paper PMC10873978, “Novel tetrahydroisoquinolines as DHFR and CDK2 inhibitors: synthesis, characterization, anticancer activity and antioxidant properties” (BMC Chemistry, 2024).

Columns and labels:
[1] = DPPH scavenging antioxidant activity
Method: The antioxidant activity of ten compounds was determined using DPPH [32–34]. A solution 1: prepared by dissolving DPPH (0.002 g) in ethanol (50 mL etnanol). Solution 2: prepared by dissolving different weights 0.05, 0.01 g of each sample in 1 mL of DMSO then take 10 µL of each sample solution with 1 mL ethanol. Then mix 1 mL of solution 1 with 1 mL of solution 2 then vortex the resulting mixture in the dark for about 30 min. The absorbance of the mixture was measured by spectrophotometer at λmax = 517 nm against blank 1 mL absolute ethanol and compared to the ascorbic acid (Vitamin C).
Ten newly synthesized compounds were studied as in vitro antioxidants by measuring of their DPPH scavenging activity which is represented as a percentage % [32]^. Results are represented by mean ± SD of three replicates. […] The higher dose concentration of 0.05 μg/mL represents higher antioxidant activity. […] The high antioxidant activity is referred to the presence of C=O, NH2, and OH groups like ascorbic acid which can be easily oxidized and reduced and can be used as antioxidant drugs. (Fig. 8 and Table 9).

MCF7 cell line = assay: In vitro cytotoxic activity, MTT method, MCF7; format: cell-based, human; conditions: for IC50: Homo sapiens, MCF7, MCF7 cell line, MTT
Method: (§1) Cell lines: The in vitro human breast cancerous cell line (MCF7), lung cancerous cell lines (A549) and normal cell lines were purchased from Serum and Vaccine formulation in Cairo-Egypt.
(§2) In vitro cytotoxic activity of all synthesized compounds against two human breast cell line (MCF7) and lung cell lines (A549) was evaluated according to the MTT method. Firstly, Growth the cell line medium in 96 well tissue culture plate was injected with 10^5 cells/mL (100 uL/plate well) of the cell line and incubated at 37 °C for 24 h to develop a monolayer sheet then the formed growth medium was poured from 96 well microtiter plates after the confluent sheet of cells. […] Secondly, add 0.1 mL of each concentration tetrahydroisoquinoline sample to each plate. The plates were incubated at 37 °C. Thirdly MTT solution (5 mg/mL in PBS) is prepared. Add 20 µL of MTT solution to each well plates. And shaking in 150 rpm for 5 min, to mix the MTT into the media. Then incubate at (37 °C, 5% CO2) for 1–5 h. Finally read the optical density at 560 nm and subtract background at 620 nm.
(§3) In this work, doxorubicin was used as a positive control drug for comparison with the synthesized compounds under the same experimental conditions.

A549 cell line = assay: In vitro cytotoxic activity, MTT method, A549; conditions: for IC50: Homo sapiens, read-out: IC50 ± SD
Method: as §1, §2, §3

Compound: O=C1O[C@H]([C@@H](O)CO)C(O)=C1O [Vitamin C, ascorbic acid, reference compound]
- DPPH scavenging, inhibition (%) ([1]; 0.01 µg/mL): 50.54 ± 2.76%
- DPPH scavenging, inhibition (%) ([1]; 0.05 µg/mL): 69.90 ± 3.98%

Compound: CC(=O)C1C(c2ccc(N(C)C)cc2)c2c(C)nc3sc(C(=O)Nc4ccc(Cl)cc4)c(N)c3c2CC1(C)O (stereo not shown) [Compound 8c, 7-Acetyl-1-amino-N-(4-chlorophenyl)-5,8-dimethyl-8-hydroxy-6-(4-N,N-dimethyl-aminophenyl)-6,7,8,9-tetrahydrothieno[2,3-c]isoquinoline-2-carboxamide]
- IC50 (MCF7 cell line): 215 ± 5 nM
- Toxicity % (MCF7 cell line; MCF7, Conc. 0.0487 µMol): 26.68%
- Viability % (MCF7 cell line; MCF7, Conc. 0.0487 µMol): 73.3223%
- Toxicity % (MCF7 cell line; MCF7, Conc. 0.0975 µMol): 30.4566%
- Viability % (MCF7 cell line; MCF7, Conc. 0.0975 µMol): 69.5434%
- Toxicity % (MCF7 cell line; MCF7, Conc. 0.195 µMol): 40.36%
- Viability % (MCF7 cell line; MCF7, Conc. 0.195 µMol): 59.64%
- Toxicity % (MCF7 cell line; MCF7, Conc. 0.391 µMol): 60.25%
- Viability % (MCF7 cell line; MCF7, Conc. 0.391 µMol): 39.75%
- Toxicity % (MCF7 cell line; MCF7, Conc. 0.781 µMol): 70.02%
- Viability % (MCF7 cell line; MCF7, Conc. 0.781 µMol): 29.98%
- Toxicity % (MCF7 cell line; MCF7, Conc. 1.562 µMol): 85.7%
- Viability % (MCF7 cell line; MCF7, Conc. 1.562 µMol): 14.3%
- Toxicity % (MCF7 cell line; MCF7, Conc. 3.125 µMol): 96.45%
- Viability % (MCF7 cell line; MCF7, Conc. 3.125 µMol): 3.554%
- Toxicity % (MCF7 cell line; MCF7, Conc. 6.25 µMol): 96.57%
- Viability % (MCF7 cell line; MCF7, Conc. 6.25 µMol): 3.431%
- Toxicity % (MCF7 cell line; MCF7, Conc. 12.5 µMol): 97.1%
- Viability % (MCF7 cell line; MCF7, Conc. 12.5 µMol): 2.9%
- Toxicity % (MCF7 cell line; MCF7, Conc. 25 µMol): 96.94%
- Viability % (MCF7 cell line; MCF7, Conc. 25 µMol): 3.064%
- Toxicity % (A549 cell line; A549, Conc. 0.04875 µMol): 10.24%
- Toxicity % (A549 cell line; A549, Conc. 0.0975 µMol): 14.26%
- Toxicity % (A549 cell line; A549, Conc. 0.195 µMol): 18.74%
- Viability % (A549 cell line; A549, Conc. 0.195 µMol): 81.26%
- Toxicity % (A549 cell line; A549, Conc. 0.391 µMol): 47.14%
- Viability % (A549 cell line; A549, Conc. 0.391 µMol): 52.86%
- Toxicity % (A549 cell line; A549, Conc. 0.781 µMol): 65.05%
- Viability % (A549 cell line; A549, Conc. 0.781 µMol): 34.95%
- Toxicity % (A549 cell line; A549, Conc. 1.562 µMol): 75.74%
- Viability % (A549 cell line; A549, Conc. 1.562 µMol): 24.26%
- Toxicity % (A549 cell line; A549, Conc. 3.125 µMol): 84.18%
- Viability % (A549 cell line; A549, Conc. 3.125 µMol): 15.82%
- Toxicity % (A549 cell line; A549, Conc. 6.25 µMol): 89.35%
- Viability % (A549 cell line; A549, Conc. 6.25 µMol): 10.65%
- Toxicity % (A549 cell line; A549, Conc. 12.5 µMol): 96.69%
- Viability % (A549 cell line; A549, Conc. 12.5 µMol): 3.314%
- Toxicity % (A549 cell line; A549, Conc. 25 µMol): 97%
- Viability % (A549 cell line; A549, Conc. 25 µMol): 2.998%
- IC50 (A549 cell line): 332 ± 2 nM

Compound: CC(=O)C1C(c2ccc(N(C)C)cc2)c2c(C)nc3sc(C(=O)Nc4ccc(C)cc4)c(N)c3c2CC1(C)O (stereo not shown) [Compound 8b, 7-Acetyl-1-amino-5,8-dimethyl-8-hydroxy-6-(4-N,N-dimethylaminophenyl)-N-(4-tolyl)-6,7,8,9-tetrahydrothieno[2,3-c]isoquinoline-2-carboxamide]
- IC50 (MCF7 cell line): 3800 ± 8 nM
- Toxicity % (MCF7 cell line; MCF7, Conc. 0.0487 µMol): 0.0678%
- Viability % (MCF7 cell line; MCF7, Conc. 0.0487 µMol): 99.9322%
- Toxicity % (MCF7 cell line; MCF7, Conc. 0.0975 µMol): 0.1234%
- Viability % (MCF7 cell line; MCF7, Conc. 0.0975 µMol): 99.8766%
- Toxicity % (MCF7 cell line; MCF7, Conc. 0.195 µMol): 0.2042%
- Viability % (MCF7 cell line; MCF7, Conc. 0.195 µMol): 99.8%
- Toxicity % (MCF7 cell line; MCF7, Conc. 0.391 µMol): -0.2042%
- Viability % (MCF7 cell line; MCF7, Conc. 0.391 µMol): 100.2%
- Toxicity % (MCF7 cell line; MCF7, Conc. 0.781 µMol): 2.124%
- Viability % (MCF7 cell line; MCF7, Conc. 0.781 µMol): 97.88%
- Toxicity % (MCF7 cell line; MCF7, Conc. 1.562 µMol): 13.36%
- Viability % (MCF7 cell line; MCF7, Conc. 1.562 µMol): 86.64%
- Toxicity % (MCF7 cell line; MCF7, Conc. 3.125 µMol): 24.63%
- Viability % (MCF7 cell line; MCF7, Conc. 3.125 µMol): 75.37%
- Toxicity % (MCF7 cell line; MCF7, Conc. 6.25 µMol): 60.13%
- Viability % (MCF7 cell line; MCF7, Conc. 6.25 µMol): 39.87%
- Toxicity % (MCF7 cell line; MCF7, Conc. 12.5 µMol): 88.07%
- Viability % (MCF7 cell line; MCF7, Conc. 12.5 µMol): 11.93%
- Toxicity % (MCF7 cell line; MCF7, Conc. 25 µMol): 96.69%
- Viability % (MCF7 cell line; MCF7, Conc. 25 µMol): 3.309%
- Toxicity % (A549 cell line; A549, Conc. 0.04875 µMol): 8.929%
- Toxicity % (A549 cell line; A549, Conc. 0.0975 µMol): 10.49%
- Toxicity % (A549 cell line; A549, Conc. 0.195 µMol): 12.58%
- Viability % (A549 cell line; A549, Conc. 0.195 µMol): 87.42%
- Toxicity % (A549 cell line; A549, Conc. 0.391 µMol): 21.42%
- Viability % (A549 cell line; A549, Conc. 0.391 µMol): 78.58%
- Toxicity % (A549 cell line; A549, Conc. 0.781 µMol): 51.95%
- Viability % (A549 cell line; A549, Conc. 0.781 µMol): 48.05%
- Toxicity % (A549 cell line; A549, Conc. 1.562 µMol): 61.42%
- Viability % (A549 cell line; A549, Conc. 1.562 µMol): 38.58%
- Toxicity % (A549 cell line; A549, Conc. 3.125 µMol): 70.69%
- Viability % (A549 cell line; A549, Conc. 3.125 µMol): 29.31%
- Toxicity % (A549 cell line; A549, Conc. 6.25 µMol): 84.3%
- Viability % (A549 cell line; A549, Conc. 6.25 µMol): 15.7%
- Toxicity % (A549 cell line; A549, Conc. 12.5 µMol): 93.25%
- Viability % (A549 cell line; A549, Conc. 12.5 µMol): 6.746%
- Toxicity % (A549 cell line; A549, Conc. 25 µMol): 96.06%
- Viability % (A549 cell line; A549, Conc. 25 µMol): 3.945%
- IC50 (A549 cell line): 527 ± 2 nM
